Experimental data taken from patent US20070154581A1, “Composition and method for enhancing or stimulating the immune system” (priority 2005, published 2007).
In brackets after ≈: the same amount, converted by molar mass. Read-outs that look alike come from different tables or passages of the source.

Assays:
[1] = test system: Trypanosoma cruzi; details: cited from earlier work
[2] = test system: human immunodeficiency virus-infected cell system; details: cited from earlier work
[3] = test system: phosphatidylcholine biosynthesis; details: cited from earlier work
[4] = test system: alcohol dehydrogenases; assay: Inhibition of thiol-containing enzymes of the amoeba parasite; type: biochemical
[5] = test system: Candida tropicalis; details: cited from earlier work
[6] = test system: methicillin resistant Staphylococcus aureus, multidrug-resistant enterotoxicogenic Escherichia coli, Enterococcus, Shigella dysenteriae, S. flexneni and S. …; details: strains resistant to antibiotics; cited from earlier work
[7] = test system: Staphylococcus aureus; details: cited from earlier work
[8] = test system: Giardia lamblia; details: 30 μg/mL; cited from earlier work
[9] = test system: trophozoites of E. histolytica; details: 5 μg/mL, in vitro; cited from earlier work
[10] = test system: Streptococcus progenies; details: Sensitive; cited from earlier work
[11] = target: NADP-dependent alcohol dehydrogenase (Thermoanaerobacter brockii, UniProt P14941); assay: Inhibition of thiol enzymes by allicin; type: biochemical, Thermoanaerobium brockii; details: could be reactivated with thiol-containing compounds
NADP-dependent alcohol dehydrogenase, sequence (P14941 whole entry): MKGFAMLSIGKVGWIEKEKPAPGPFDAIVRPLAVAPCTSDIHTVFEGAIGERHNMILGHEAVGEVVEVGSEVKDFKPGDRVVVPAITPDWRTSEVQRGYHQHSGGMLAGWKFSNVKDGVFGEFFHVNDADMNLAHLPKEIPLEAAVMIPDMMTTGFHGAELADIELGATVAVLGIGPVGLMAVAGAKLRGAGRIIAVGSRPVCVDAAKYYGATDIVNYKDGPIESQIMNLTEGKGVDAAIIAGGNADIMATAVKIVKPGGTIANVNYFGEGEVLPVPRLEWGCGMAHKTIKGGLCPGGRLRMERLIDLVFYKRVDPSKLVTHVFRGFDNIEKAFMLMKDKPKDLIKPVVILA

[12] = test system: Torulopsis glabrata; details: cited from earlier work
[13] = test system: Acetate incorporation into fatty acids of isolated plastids; details: read-out: 50% inhibitory concentration (I 50 value); cited from earlier work
[14] = test system: S. fiexneri Y; details: rabbit; cited from earlier work
[15] = test system: Streptococcus β hemolyticus; details: Clinical MDR strain; cited from earlier work
[16] = test system: Crithidia fasciculata; details: 30 μg/mL; cited from earlier work
[17] = target: thiol-protease papain (Carica papaya, UniProt P00784); assay: Inhibition of thiol enzymes by allicin; type: biochemical; details: could be reactivated with thiol-containing compounds
thiol-protease papain, sequence (P00784 134-345): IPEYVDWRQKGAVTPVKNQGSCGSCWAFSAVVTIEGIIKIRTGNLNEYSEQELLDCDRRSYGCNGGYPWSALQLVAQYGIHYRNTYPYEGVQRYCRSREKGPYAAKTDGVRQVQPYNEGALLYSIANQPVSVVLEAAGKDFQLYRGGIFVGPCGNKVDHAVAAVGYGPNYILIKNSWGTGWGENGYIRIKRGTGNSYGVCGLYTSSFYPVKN

[18] = test system: Pseudomonas aeruginosa; details: cited from earlier work
[19] = target: T1, NAD-dependent alcohol dehydrogenase (Equus caballus, UniProt P00327); assay: Inhibition of thiol enzymes by allicin; type: biochemical, horse; details: could be reactivated with thiol-containing compounds
T1 construct: the NAD-dependent alcohol dehydrogenase from horse liver; from tissue; host or cells: horse liver
T1 sequence (P00327 2-375 limits assumed): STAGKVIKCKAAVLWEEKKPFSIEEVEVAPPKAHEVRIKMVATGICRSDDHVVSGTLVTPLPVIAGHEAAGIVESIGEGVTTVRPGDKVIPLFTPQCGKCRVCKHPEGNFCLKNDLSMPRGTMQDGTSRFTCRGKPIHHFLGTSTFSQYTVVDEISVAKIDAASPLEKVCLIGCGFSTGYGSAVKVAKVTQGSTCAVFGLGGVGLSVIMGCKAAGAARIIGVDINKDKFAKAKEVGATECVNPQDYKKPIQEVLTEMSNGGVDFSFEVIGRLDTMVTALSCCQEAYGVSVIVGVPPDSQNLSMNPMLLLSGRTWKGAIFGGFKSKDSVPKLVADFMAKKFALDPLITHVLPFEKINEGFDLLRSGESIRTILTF

[20] = test system: Candida krusei; details: cited from earlier work
[21] = test system: mucoid strains of Pseudomonas aeruginosa, Streptococcus β hemnolyticus and Enterococcus faecium; details: cited from earlier work
[22] = test system: tissue-cultured mammalian cells
[23] = test system: Candida; details: pure allicin; cited from earlier work
[24] = test system: Acinetobacter baumanii; details: Clinical isolate; cited from earlier work
[25] = test system: cysteine proteinases; assay: Inhibition of thiol-containing enzymes of the amoeba parasite; type: biochemical
[26] = test system: Leishmania major; details: 30 μg/mL; cited from earlier work
[27] = test system: Enterococcus faecium; details: Clinical MDR strain; cited from earlier work
[28] = test system: Proteus mirabilis; details: cited from earlier work
[29] = target: acetyl-CoA-forming system, consisting of acetate kinase and phosphotransacetyl-CoA synthetase; details: cited from earlier work
[30] = Candida neoformans; cited from earlier work
[31] = test system: Entainoeba histolytica; details: cited from earlier work
[32] = test system: Escherichia coli; details: cited from earlier work
[33] = test system: Leptornonas colosoma; details: 30 μg/mL; cited from earlier work
[34] = test system: Salmonella typhimurium; details: 0.2 to 0.5 mM; cited from earlier work
[35] = test system: Klebsiella pneumoniae; details: Clinical isolate; cited from earlier work
[36] = test system: Candida albicans; details: cited from earlier work
[37] = test system: thioredoxin reductases; assay: Inhibition of thiol-containing enzymes of the amoeba parasite; type: biochemical
[38] = test system: tissue-cultured mammalian cells; details: cited from earlier work
[39] = test system: Candida parapsilosis; details: cited from earlier work
[40] = alliin in itself; cited from earlier work

## C=CCSSC=CC[S+]([O-])CC=C (mixture of isomers) [ajoene]
[1]
  proliferation of Trypanosoma cruzi: inhibit the proliferation
[2]
  integrin-dependent processes: block the integrin-dependent processes
[3]
  phosphatidylcholine biosynthesis: inhibit phosphatidylcholine biosynthesis

## C=CCS[S+]([O-])CC=C (centres unmarked) [allicin]
[4]
  concentration at which inhibition was observed: > 10 µg/mL
[5]
  Allicin concentration MIC: 0.3 µg/mL
[6]
  sensitivity to allicin: sensitive
[7]; Methicillin resistant
  Allicin Concentration (LD50 ug/ml): 12 µg/mL
[7]; Sensitive
  Allicin Concentration (LD50 ug/ml): 12 µg/mL
[8]
  growth inhibition: very efficiently inhibited
[9]
  inhibition of virulence of trophozoites: 90%
[10]
  Allicin Concentration (LD50 ug/ml): 3 µg/mL
[11]
  inhibition of NADP-dependent alcohol dehydrogenase from Thermoanaerobium brockii: irreversibly inhibited
[12]; Clinical isolates
  Allicin concentration MIC: 1.9 µg/mL
[12]
  Allicin concentration MIC: 0.3 µg/mL
[13]
  IC50: < 10 mM
[14]
  antibacterial activity in vivo: in vivo antibacterial activity
[15]
  Allicin Concentration (LD50 ug/ml): >100 µg/mL
[16]
  growth inhibition: very efficiently inhibited
[17]
  inhibition of papain: irreversibly inhibited
[18]; MDR mucoid strain
  Allicin Concentration (LD50 ug/ml): >100 µg/mL
[18]; Sensitive to cefprozil
  Allicin Concentration (LD50 ug/ml): 15 µg/mL
[19]
  inhibition of NAD-dependent alcohol dehydrogenase from horse liver: irreversibly inhibited
[20]
  Allicin concentration MIC: 0.3 µg/mL
[21]
  sensitivity to allicin: resistant
[22]
  concentration toxic to tissue-cultured mammalian cells: > 100 µg/mL
[23]
  minimum inhibitory concentration: 7 µg/mL (≈ 43.1 µM)
[24]
  Allicin Concentration (LD50 ug/ml): 15 µg/mL
[25]
  concentration at which inhibition was observed: > 10 µg/mL
[26]
  growth inhibition: very efficiently inhibited
[27]
  Allicin Concentration (LD50 ug/ml): >100 µg/mL
[28]; Prloteus marbles, Sensitive
  Allicin Concentration (LD50 ug/ml): 15 µg/mL
[28]; Proteus mirabilis, Clinical MDR strain
  Allicin Concentration (LD50 ug/ml): >30 µg/mL
[29]
  kind of inhibition: noncovalent and reversible
[30]
  Allicin concentration MIC: 0.3 µg/mL
[31]
  concentration that totally inhibits the growth of amoeba cultures: 30 µg/mL
[32]; Multidrug resistant MDR
  Allicin Concentration (LD50 ug/ml): 15 µg/mL
[32]; Sensitive to antibiotics
  Allicin Concentration (LD50 ug/ml): 15 µg/mL
[33]
  growth inhibition: very efficiently inhibited
[34]
  effect on DNA and protein synthesis: partially inhibit
  effect on RNA synthesis: immediate
[35]
  Allicin Concentration (LD50 ug/ml): 8 µg/mL
[36]; Clinical isolates
  Allicin concentration MIC: 0.8 µg/mL
[36]
  Allicin concentration MIC: 0.3 µg/mL
[37]
  concentration at which inhibition was observed: > 10 µg/mL
[38]
  concentration at which some toxicity towards tissue-cultured mammalian cells was observed: above 100 μM
[39]
  Allicin concentration MIC: 0.15 µg/mL

## (+)-S-allyl-L-cysteine-sulfoxide [alliin]
[40]
  antimicrobial activity: no antimicrobial activity
